Read-outs that look alike come from different tables or passages of the source.
How the values were obtained:
[1] = tested on: sucrose transporter P62 (StSUT1); experiment: Activation of sucrose transport by preincubation of the yeast cells; type: cell-based, Solanum tuberosum; conditions: for Effect on sucrose transport as a function of concentration: preincubation of yeast cells, result in words
Procedure: The transport of sucrose by the sucrose transporter P62 (StSUT1) from Solanum tuberosum can be increased by previous energizing of the yeast cells by incubation in glucose, stachyose and adenine. The same increase in transport activity is achieved by reducing the pH to pH 3.8 in the measurement. The measurement of transport to determine the activation takes place as described in Example 3 but the cells are incubated before the actual measurement not in 10 mM glucose for 5 min but in solutions of various concentrations of glucose, stachyose and adenine for 5 min. Yeast cells which are not incubated in solutions of these substances before the measurement act as control. The following table indicates the extent of activation of sucrose transport with various concentrations of glucose, stachyose and adenine compared with the control.

[2] = molecular target: T1, sucrose transporter S21 (SoSUT1) (Spinacia oleracea, UniProt Q03411); experiment: [14C]-sucrose uptake by yeast strain SUSY7 expressing the spinach sucrose transporter; type: cell-based; conditions: for remaining activity at 1000 µM: tested substance 1.0 mmol/l
T1 construct: expressed in transfected cells; host or cells: Saccharomyces cerevisiae SUSY7
T1 sequence (Q03411 1-525): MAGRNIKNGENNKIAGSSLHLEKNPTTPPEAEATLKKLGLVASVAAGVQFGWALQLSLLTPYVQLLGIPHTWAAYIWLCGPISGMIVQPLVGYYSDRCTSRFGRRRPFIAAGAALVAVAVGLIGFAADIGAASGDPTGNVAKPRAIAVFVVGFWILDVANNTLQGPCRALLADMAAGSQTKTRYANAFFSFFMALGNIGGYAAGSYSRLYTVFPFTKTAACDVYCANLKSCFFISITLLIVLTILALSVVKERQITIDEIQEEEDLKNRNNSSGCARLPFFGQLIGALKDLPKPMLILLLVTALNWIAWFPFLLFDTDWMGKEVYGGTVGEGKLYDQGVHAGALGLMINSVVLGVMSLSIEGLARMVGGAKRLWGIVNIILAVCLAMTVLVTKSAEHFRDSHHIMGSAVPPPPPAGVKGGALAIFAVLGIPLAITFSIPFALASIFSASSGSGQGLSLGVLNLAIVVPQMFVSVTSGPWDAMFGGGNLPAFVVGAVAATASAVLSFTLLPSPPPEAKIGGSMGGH
Procedure: Yeast cells of the strain SUSY7 (Riesmeier et al., 1992, EMBO J. 11: 4705-4713) are used to identify substances which have an inhibitory effect on sucrose transporters from spinach. Cells of this strain are transformed with a cDNA sequence which codes for the sucrose transporter S21 (SoSUT1) from spinach and which ensures expression of a functional transporter in the cells. The yeast cells are cultured in minimal medium (SD+2% (w/v) sucrose, pH 3.8) at 28° C. and harvested in the logarithmic phase (OD600 =0.6). The cells are spun down at 4000 rpm for 10 minutes and washed twice with SD medium. A cell concentration of c=50 g/l in SD medium is adjusted according to the wet weight of the cells, and 200 μl aliquot fractions are taken. Before the actual reaction, the cells are incubated in 10 mM glucose for 5 min and adjusted to pH 3.8 with MES buffer. The reaction is started by adding 200 μl of a 0.2 mmol/l [14C]-sucrose solution (3 mCi/mmol) in SD medium (pH 3.8). After 20, 60, 120, 180 and 240 seconds, 70 μl portions of the suspension are removed and pipetted into 4 ml of ice-cold water in order to stop the reaction. The cells are filtered off on glass fiber filters and washed twice with ice-cold water. The radioactivity on the filters is subsequently determined in a liquid scintillation counter. The substances to be tested are added 30 seconds before addition of the sucrose. The uptake of radiolabeled sucrose without addition of a potential inhibitor is determined as one control. Cells of the strain SUSY7 which are not transformed with cDNA sequences coding for a sucrose transporter from spinach are employed as further control.
The various tested substances, their concentration and the activity of the transporter, shown as percentage activity of the control in which no potential inhibitors were added, are indicated. Substances which specifically show an inhibitory effect on the sucrose transporter S21 (SoSUT1), are tested for their herbicidal and growth-regulating effect on whole plants.

[3] = molecular target: T2, sucrose transporter P62 (StSUT1) (Solanum tuberosum, UniProt Q43653); experiment: [14C]-sucrose uptake by yeast strain SUSY-7-P62 (StSUT1) expressing the potato sucrose transporter; type: cell-based; conditions: [14C]-sucrose uptake, pH 3.8
T2 construct: whole-cell [14C]-sucrose uptake; no tag or borders given
T2 sequence (Q43653 1-516): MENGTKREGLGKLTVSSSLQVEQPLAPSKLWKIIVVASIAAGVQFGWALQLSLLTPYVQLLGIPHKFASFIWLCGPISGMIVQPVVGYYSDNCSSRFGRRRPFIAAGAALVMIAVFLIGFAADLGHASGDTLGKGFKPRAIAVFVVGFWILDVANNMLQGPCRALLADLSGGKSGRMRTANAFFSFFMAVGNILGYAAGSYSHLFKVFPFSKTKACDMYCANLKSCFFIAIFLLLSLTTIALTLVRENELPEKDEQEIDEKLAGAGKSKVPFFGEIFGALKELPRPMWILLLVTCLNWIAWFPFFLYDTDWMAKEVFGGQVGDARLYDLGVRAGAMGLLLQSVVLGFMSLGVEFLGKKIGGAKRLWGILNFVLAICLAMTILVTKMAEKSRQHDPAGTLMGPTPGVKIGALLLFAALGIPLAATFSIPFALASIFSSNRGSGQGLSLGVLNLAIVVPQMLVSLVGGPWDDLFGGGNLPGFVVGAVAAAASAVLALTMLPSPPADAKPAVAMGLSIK
Source text: Yeast cells of the strain SUSY7 (Riesmeier et al., 1992, EMBO J. 11: 4705-4713) are used to identify substances which have an inhibitory effect on sucrose transporters from potato. Cells of this strain are transformed with a cDNA sequence which codes for the sucrose transporter P62 (StSUT1) from potato (WO 94/00574, Riesmeier et al., 1993, Plant Cell 5:1591-1598) and which ensures expression of a functional transporter in the cells. The resulting yeast strain was called SUSY-7-P62 (StSUT1). The yeast cells are cultured in minimal medium (SD +2% (w/v) sucrose, pH 3.8) at 28° C. and harvested in the logarithmic phase (OD600 =0.6). The cells are spun down at 4000 rpm for 10 minutes and washed twice with SD medium. A cell concentration of c=50 g/l in SD medium is adjusted according to the wet weight of the cells, and 200 Al aliquot fractions are taken. Before the actual reaction, the cells are incubated in 10 mM glucose for 5 min and adjusted to pH 3.8 with MES buffer. The reaction is started by adding 200 Al of a 0.2 mmol/l [14C]-sucrose solution (3 mCi/mmol) in SD medium (pH 3.8). After 20, 60, 120, 180 and 240 seconds, 70 μl portions of the suspension are removed and pipetted into 4 ml of ice-cold water in order to stop the reaction. The cells are filtered off on glass fiber filters and washed twice with ice-cold water. The radioactivity on the filters is subsequently determined in a liquid scintillation counter. The substances to be tested are added 30 seconds before addition of the sucrose. The uptake of radiolabeled sucrose without addition of a potential inhibitor is determined as one control. Cells of the strain SUSY7 which are not transformed with cDNA sequences coding for a sucrose transporter from potato are employed as further control.
The various tested substances, their concentration and the activity of the transporter, shown as percentage activity of the control in which no potential inhibitors were added, are indicated.

[4] = molecular target: T3, ammonium transporter AMT1 (Arabidopsis thaliana, UniProt P54144); experiment: cell-based
T3 construct: expressed in transfected cells; host or cells: Saccharomyces cerevisiae 26972c (mutations in MEP1 and MEP2)
T3 sequence (P54144 1-501): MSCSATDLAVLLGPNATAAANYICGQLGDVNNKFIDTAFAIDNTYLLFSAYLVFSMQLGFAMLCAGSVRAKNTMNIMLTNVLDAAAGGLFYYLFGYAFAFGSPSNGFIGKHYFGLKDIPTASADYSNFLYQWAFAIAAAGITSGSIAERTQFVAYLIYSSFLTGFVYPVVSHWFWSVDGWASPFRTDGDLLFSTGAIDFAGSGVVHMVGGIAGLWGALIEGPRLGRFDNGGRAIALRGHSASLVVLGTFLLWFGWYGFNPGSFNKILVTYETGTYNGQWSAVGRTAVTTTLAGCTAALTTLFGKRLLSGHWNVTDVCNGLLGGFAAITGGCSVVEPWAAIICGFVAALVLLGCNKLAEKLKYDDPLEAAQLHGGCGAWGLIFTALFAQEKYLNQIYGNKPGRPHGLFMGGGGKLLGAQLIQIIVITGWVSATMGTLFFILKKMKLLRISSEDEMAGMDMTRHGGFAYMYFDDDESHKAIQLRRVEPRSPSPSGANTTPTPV
Procedure: The measurements of transport identify inhibitors of plant ammonium transporters are carried out with the structural analog methylamine because radiolabeled ammonium is not commercially obtainable.
The yeast cells are transformed by standard methods with cDNA sequences which code for an ammonium transporter from plants and which permit expression of a functional transporter in the yeast cells. […] The cells are cultured in NAAG-medium (2% glucose, 1.7 g/l yeast nitrogen-base w/o amino acids and ammonium sulfate (Difco), supplemented with 500 μg/ml L-proline) at 28 degrees Celsius, and harvested in the logarithmic phase (OD660.=0.6). The cells are then spun down in a centrifuge at 4000 rpm and 4 degrees Celsius for 10 minutes, washed twice with 20 mM sodium phosphate buffer, pH 7, and taken up in the same buffer to an 0D660 of 8. 200 μl aliquot fractions of the cell suspension are taken. 5 minutes before the actual measurement,the yeasts are activated by addition of 100 mM glucose and incubated at 30 degrees Celsius. To start the reaction, 100 μl of the cell suspension are added to 100 µl of reaction mixture (20 mM Na phosphate buffer, pH7; 18.5 kBq of [^14 C]-methylamine (NEN); 100 M methylamine; substance to be tested depending on the experiment (see FIG. 4)). In each case 10, 60, 120 and 180 seconds after starting the reaction, 50 μl aliquots are taken, added to 4 ml of ice-cold 5 mM methylamine solution and filtered on glass fibre filters. After the filters have been washed with a further 8 ml of a methylamine solution, the radioactivity on the filters is subsequently determined in a liquid scintillation counter. Inhibitors are added 60 seconds before adding the glucose.
The uptake of radiolabeled methylamine without addition of a potential inhibitor is determined as one control.

[5] = sucrose transport after 5 min preincubation with the substance at c1 [0.2 mol/l], 200000 µM
[6] = sucrose transport after 5 min preincubation with the substance at c2 [2 mmol/l]
[7] = [14C]-sucrose uptake, pH 3.8, tested substance 2 mM, read-out: Activity relative to the control [%]
[8] = tested substance 2 mM, read-out: Activity relative to the control [%]
[9] = [14C]-sucrose uptake, pH 3.8, tested substance 2 mM
[10] = [14C]-sucrose uptake, pH 3.8, read-out: Activity relative to the control [%]
[11] = pH 7, [14C]-methylamine uptake, tested substance 500 μM, read-out: Activity relative to the control [%]
[12] = pH 3.8, read-out: Activity relative to the control [%]
[13] = pH 7, read-out: Activity relative to the control [%]
[14] = [14C]-methylamine uptake, tested substance 500 μM

Nc1ncnc2nc[nH]c12 [Adenine]
Effect on sucrose transport as a function of concentration [1]: linear relation between the adenine concentration and the increase in the sucrose transport rate | Activity relative to the control [%] [1, 5]: 141 ± 5% | Activity relative to the control [%] [1, 6]: 225 ± 6%

OC[C@H]1O[C@H](OC[C@H]2O[C@H](O[C@]3(CO)O[C@H](CO)[C@@H](O)[C@@H]3O)[C@H](O)[C@@H](O)[C@@H]2O)[C@H](O)[C@@H](O)[C@H]1O [Raffinose]
remaining activity at 2000 µM [2, 7]: 110% | remaining activity at 2000 µM [3, 8]: 110%

Altrose
Activity relative to the control [%] [2, 9]: 80.6%

Nc1ncnc2c1ncn2C1CC=CC1CO (stereo not drawn)
remaining activity at 1000 µM [2, 10]: 0%

OC[C@H]1O[C@@H](O[C@H]2[C@H](O)[C@@H](O)[C@H](O)O[C@@H]2CO)[C@H](O)[C@@H](O)[C@H]1O [β-Lactose]
remaining activity at 2000 µM [2, 7]: 94.9% | remaining activity at 2000 µM [3, 8]: 91%

NC1CC(CO)C(O)C1O (stereo not drawn)
remaining activity at 1000 µM [2, 10]: 0%

CCN [Ethylamine]
remaining activity at 500 µM [4, 11]: 93%

OC[C@H]1O[C@@H](O[C@H]2[C@H](O)[C@@H](O)[C@@H](O)O[C@@H]2CO)[C@H](O)[C@@H](O)[C@H]1O [α-Lactose]
remaining activity at 2000 µM [2, 7]: 81.8%

OC[C@H]1OC(O)[C@H](O)[C@@H](O)[C@H]1O (stereo partly drawn) [Galactose]
remaining activity at 2000 µM [2, 12]: 97.7%

O=C(CO)[C@@H](O)[C@@H](O)[C@H](O)CO [Tagatose]
remaining activity at 2000 µM [2, 7]: 105% | remaining activity at 2000 µM [3, 8]: 103%

C[C@@H]1C[C@@H]([C@H](O)CC2CC(=O)NC(=O)C2)C(=O)[C@@H](C)C1 [Cycloheximide]
remaining activity at 10 µg/mL [4, 13]: 85%

C(=NC1CCCCC1)=NC1CCCCC1 [DCCD]
remaining activity at 200 µM ([4]; pH 7, [14C]-methylamine uptake, tested substance 200 μM, read-out: Activity relative to the control [%]): 15%

CCN1C(=O)C=CC1=O [N-Ethylmaleimide]
remaining activity at 1000 µM ([3]; tested substance 1 mM, read-out: Activity relative to the control [%]): 22%

[Cl-].[K+] [KCl]
Activity relative to the control [%] [4, 14]: 98%

[Cl-].[Rb+] [RbCl]
Activity relative to the control [%] [4, 14]: 96%

OC[C@H]1O[C@@H](O[C@H]2[C@H](O)[C@@H](O)C(O)O[C@@H]2CO)[C@H](O)[C@@H](O)[C@@H]1O (stereo partly drawn) [Cellobiose]
remaining activity at 2000 µM [2, 7]: 99.4%

OC[C@H]1O[C@H](OC[C@H]2O[C@H](OC[C@H]3O[C@H](O[C@]4(CO)O[C@H](CO)[C@@H](O)[C@@H]4O)[C@H](O)[C@@H](O)[C@@H]3O)[C@H](O)[C@@H](O)[C@H]2O)[C@H](O)[C@@H](O)[C@H]1O [Stachyose]
Effect on sucrose transport as a function of concentration [1]: stimulates sucrose transport at low concentrations, while this effect is reversed at high concentrations (c>0.4 mmol/l) | Activity relative to the control [%] [1, 5]: 144 ± 9% | Activity relative to the control [%] [1, 6]: 101 ± 8%

OC[C@H]1OC(O)[C@@H](O)[C@@H](O)[C@@H]1O (stereo partly drawn) [Mannose]
remaining activity at 2000 µM [2, 12]: 86.5%

Cl.N [NH4 Cl]
Activity relative to the control [%] [4, 14]: 10%

OC[C@H]1O[C@H](OC[C@H]2OC(O)[C@H](O)[C@@H](O)[C@@H]2O)[C@H](O)[C@@H](O)[C@H]1O (stereo partly drawn) [Melibiose]
remaining activity at 2000 µM [2, 7]: 92.3%

CNC [Dimethylamine]
remaining activity at 500 µM [4, 13]: 89%

OC[C@H]1O[C@H](Oc2ccccc2)[C@H](O)[C@@H](O)[C@@H]1O [α-Phenylglucose]
Activity relative to the control [%] [2, 9]: 8.0% | Activity relative to the control [%] ([3]; tested substance 2 mM): 7%

OC[C@H]1O[C@@](CO)(O[C@H]2O[C@H](CO)[C@@H](O)[C@H](O)[C@H]2O)[C@@H](O[C@H]2O[C@H](CO)[C@@H](O)[C@H](O)[C@H]2O)[C@@H]1O [Melizitose]
remaining activity at 2000 µM [2, 7]: 97.2%

O=C(CO)[C@@H](O)[C@H](O)[C@H](O)CO[C@H]1O[C@H](CO)[C@@H](O)[C@H](O)[C@H]1O [Palatinose]
remaining activity at 2000 µM [2, 7]: 85% | remaining activity at 2000 µM [3, 8]: 102%

Antimycin A
Activity relative to the control [%] ([4]; [14C]-methylamine uptake, tested substance 10 μg/ml): 8%

CN(C)C [Trimethylamine]
remaining activity at 500 µM [4, 11]: 89%

[Cl-].[Cs+] [CsCl]
Activity relative to the control [%] [4, 14]: 98%

Reference: patent US5750362A, “Methods for identifying substances with a potential herbicidal or growth-regulating action by means of plant transporter proteins, the use of the transporter proteins, and substances with a herbicidal and growth-regulating action” (BASF Aktiengesellschaft, priority 1993, dated 1998)
